# “Also recorded” adds a separate entry of the source.
# Assays:
# Format in all cases: cell-based, human
# APOB^−/− organoids [1] = experiment: bulk RNA-sequencing of drug-treated organoids
# Description: Organoids from 1 well of a 12-well plate were harvested and washed in cold AdvDMEM+++. Organoid pellets were lysed in 1 ml TRIzol Reagent and subsequently snap-frozen in liquid nitrogen. RNA was extracted according to the manufacturer's protocol. RNA integrity was measured using the Agilent RNA 6000 Nano kit with the Agilent 2100 Bioanalyzer and RNA concentrations were determined using the Qubit RNA HS Assay Kit. RNA integrity number (RIN) values of RNA samples were typically 9.5-10 and never below 9.0. RNA libraries were prepared TruSeq Stranded mRNA polyA kit and single-end (1×75 bp) sequenced on an Illumina Nextseq 2000 or Nextseq 500. Reads were mapped to the human GRCh38 genome assembly. Differential gene expression analysis was performed using the DESeq2 package (Love et al., 2014) in RStudio. Considered log 2 fold changes and significance (p-values) are indicated throughout the paper. Data visualization was obtained using the ggplot2, ComplexHeatmap, and EnhancedVolcano packages in RStudio or manually plotted using GraphPad Prism 8.
# MTTP^−/− organoids = experiment: anti-NAFLD drug screening, Nile Red lipid staining and lipid score; details: MTTP^−/− organoids exposed to drugs for 7 days
# Description: (§1) Compound stocks of all drugs were made in DMSO, except for recombinant hFGF19 and hFGF21 which were reconstituted in AdvDMEM+++. Drugs were dissolved in HEP medium with a maximum final concentration of 0.2% DMSO. The drug panel, their targets, and concentrations tested are described in Table 2.
# (§2) APOB^−/− and MTTP^−/− organoids were exposed to the drugs or vehicle in 24-well plates for 7 days with 2 medium changes. Wild type organoids were first made steatotic by pre-incubation with 500 μM FFAs (oleic acid and palmitic acid, 1:1 ratio) for 2 days. Then, FFA-loaded organoids were treated with the different drugs, still in the presence of FFA, for 7 days with 2 medium changes. All organoids were harvested for subsequent lipid staining and lipid scoring as described below. Drug effects were evaluated by observing the lipid droplet fluorescence characteristics within all organoids within the whole well. Quantitative analyses were performed in representative organoids (n≥3) per drug concentration per steatosis organoid model. Drug effects were validated in at least two independent experiments. For drug screening in PLIN2::tdTomato reporter organoids, the organoids were plated in 96-well black plates and treated with the indicated drugs. Pictures were taken over a 7-day time course using the EVOS FL Auto Imaging System. Images and fluorescence quantifications are representative of two independent experiments.
# (§3) Organoids were carefully harvested in cold AdvDMEM+++ and washed once with cold AdvDMEM+++ using low-speed centrifugations. Organoids were fixed in 4% formaldehyde at RT for 30 min-1 hour. For lipid stainings, organoids were washed twice with PBS, and incubated with Nile Red (1 μg/μl) and DAPI (1 μg/μl) for 20 min at RT. Organoids were washed twice with PBS, and transferred in 100 μl PBS to a well of a 96-well black SensoPlate for imaging analysis. […] Organoids were washed once with 0.5% BSA-PBS and subsequently incubated with primary antibodies in 2.5% BSA-PBS O/N at 4° C. After 3 washes with 0.5% BSA-PBS, organoids were incubated with secondary antibodies in 2.5% BSA-PBS for 2-4 hours at RT. Organoids were washed once with 0.5% BSA-PBS, after which they were incubated with DAPI (1 μg/μl) in 0.5% BSA-PBS for 20 min at RT, and washed once more with 0.5% BSA-PBS. Organoids were then transferred in 100 μl 0.5% BSA-PBS to a well of a 96-well black SensoPlate.
# (§4) Stained organoids were imaged on a Leica Sp8 confocal. Fluorescent images were processed using Photoshop CS4 or ImageJ software. The lipid score was calculated using Fiji software. The lipid score is defined by integrating the lipid droplet fluorescence and lipid droplet area coverage as follows: a fluorescence threshold derived from the lipid droplet signal is determined on Z-projected images to convert them into binary images. The region of interest (ROI) (organoid surface area) is defined based on fluorescence signal from the counterstained DAPI^+ nuclei. Then, particle measurement analysis is performed to define the fluorescence area covered within the defined ROI. The lipid score represents a normalized score of the resulting data on a linear 0 to 1 scale, where the mean calculated values from wild type organoids are arbitrarily set to 0, while the mean calculated values from either vehicle-treated APOB^−/− or MTTP^−/− organoids or vehicle-treated FFA-loaded organoids are set to 1, allowing scoring of drug effectiveness within these boundaries. Quantification of the amount of lipid droplets was performed manually by counting droplets within a given ROI (organoid surface area). The lipid droplet area coverage is determined identical to the lipid score without the final normalization steps.
# APOB^−/− organoids [2] = experiment: as above; details: APOB^−/− organoids exposed to drugs for 7 days
# Description: as §1, §2, §3, §4
# [3] = system: FFA-loaded wild type organoids; experiment: as above; details: wild type organoids pre-incubated with 500 μM FFAs 2 days, then drugs 7 days in presence of FFA
# Description: Wild type human hepatocyte organoids were made steatotic by providing a concentrated mixture of exogenous FFAs (oleic acid (18:1) and palmitic acid (16:0), ratio 1:1) in the culture medium. The FFAs were dissolved in ethanol and thereafter conjugated to bovine serum albumin. Prior to fat loading, organoids were plated into small BME droplets (15 μl/drop) to facilitate FFA penetration. Total concentrations of FFA were 640 μM for transcriptomic analyses to mimic the level of steatosis observed in APOB^−/− or MTTP^−/− organoids.
# as §1
# as §2, with “experiments. […]” for “experiments. For drug screening in PLIN2::tdTomato reporter organoids, the organoids were plated in 96-well black plates and treated with the indicated drugs. Pictures were taken over a 7-day time course using the EVOS FL Auto Imaging System.”, “experiments. […]” for “experiments.”
# as §4, with “Fluorescent images were processed using Photoshop CS4 or ImageJ software.” left out, “Quantification of the amount of lipid droplets was performed manually by counting droplets within a given ROI (organoid surface area). The lipid droplet area coverage is determined identical to the lipid score without the final normalization steps.” left out
# [4] = system: PLIN2::tdTomato; MTTP^−/− reporter organoids; experiment: drug screening in PLIN2 reporter organoids, fluorescence read-out; details: PLIN2-tagged reporter organoids, ACCi or vehicle for 5 days
# Text: PLIN2 reporter lines in the background of APOB^−/− or MTTP^−/− organoids were generated using CRISPR-HOT as described previously (Artegiani et al., 2020; Hendriks et al., 2021). Briefly, the transfection mixture consisted of a sgRNA targeting the C-terminus of PLIN2, a plasmid providing both Cas9 and a non-human sgRNA targeting the donor plasmid (Addgene #66940), and a donor plasmid encoding either tdTomato (Addgene #138567) or mNeon (a gift from V. Hornung). Upon transfection, the sgRNA targeting the donor plasmid linearizes the donor plasmid to facilitate NHEJ-mediated in-frame gene knock-in of the fluorescent tag into the PLIN2 C-terminus. Upon outgrowth of transfected organoids, fluorescent organoids became apparent. A bulk PLIN2-tagged fluorescence-pure culture was established by sorting single fluorescence-positive cells by FACS. Genotyping was performed to confirm precise gene knock-in.
# APOB^−/− and MTTP^−/− organoids were exposed to the drugs or vehicle in 24-well plates for 7 days with 2 medium changes. […] Drug effects were evaluated by observing the lipid droplet fluorescence characteristics within all organoids within the whole well. Quantitative analyses were performed in representative organoids (n≥3) per drug concentration per steatosis organoid model. […] Images and fluorescence quantifications are representative of two independent experiments.
compound,measurement,setting,value
"O=C(O)c1ccnc(N2CC(O)(c3ccc(OCc4c(-c5c(Cl)cccc5Cl)noc4C4CC4)cc3Cl)C2)c1 [FXRa, Cilofexor]",FGF19 expression,APOB^−/− organoids [1],strongly upregulated
same,expression of FXR target genes CYP7A1 and CYP27A1,APOB^−/− organoids [1],downregulation
same,expression of NR0B2 (SHP),APOB^−/− organoids [1],induction
same,"expression of de novo lipogenesis-related genes, including DGAT2, ACSS2, and GPAM",APOB^−/− organoids [1],repress
same,"expression of key hepatocyte markers (ALB, TTR)",APOB^−/− organoids [1],downregulation
same,expression of transporters such as BSEP (ABCB11),APOB^−/− organoids [1],induction
same,genes of TGFβ regulation of extracellular matrix,APOB^−/− organoids [1],gene induction patterns suggestive of TGFβ-related extracellular matrix remodeling
"O=C(Nc1ccc2[nH]nc(-c3ccncc3)c2c1)[C@@H]1CCN(CC(=O)N2CCN(c3ccc(-c4ncccn4)cc3)CC2)C1 [ERKi, SCH772984]","steatosis phenotype (lipid staining, lipid score)",MTTP^−/− organoids,did not alter the steatosis phenotype
same,"steatosis phenotype (lipid staining, lipid score)",APOB^−/− organoids [2],did not alter the steatosis phenotype
"Oc1ccc(-c2nc(-c3ccncc3)c(-c3ccc(F)cc3)[nH]2)cc1 [p38i, SB202190]","steatosis phenotype (lipid staining, lipid score)",MTTP^−/− organoids,reduced the steatosis phenotype
same,"steatosis phenotype (lipid staining, lipid score)",APOB^−/− organoids [2],reduced the steatosis phenotype
"CS(=O)(=O)O.O=C([C@@H]1CCCN(c2ccc3[nH]c(C4(n5cc(Cl)cn5)CC4)nc3n2)C1)N1CCCC1 [DGAT2i, PF06424439]","steatosis phenotype (lipid staining, lipid score)",[3],Effective
same,transcriptomic changes versus vehicle-treated organoids,APOB^−/− organoids [1],transcriptomically identical to vehicle-treated organoids; also recorded: very few transcriptomic changes
same,"steatosis phenotype (lipid staining, lipid score)",MTTP^−/− organoids,Effective
same,"steatosis phenotype (lipid staining, lipid score)",APOB^−/− organoids [2],Effective
"COc1ccccc1[C@H](Cn1c(=O)n(C(C)(C)C(=O)O)c(=O)c2c(C)c(-c3ncco3)sc21)OC1CCOCC1 [ACCi, Firsocostat]","steatosis phenotype (lipid staining, lipid score)",[3],Effective
same,expression of genes important for cell proliferation and DNA synthesis,APOB^−/− organoids [1],downregulation
same,"expression of key genes involved in glycolysis (ALDOB, HK2, ENO2, PFKFB3/4)",APOB^−/− organoids [1],downregulated
same,"expression of lipogenic genes (ACACA, FASN, SREBF1, etc.)",APOB^−/− organoids [1],increased expression
same,"steatosis phenotype (lipid staining, lipid score)",MTTP^−/− organoids,Effective
same,"steatosis phenotype (lipid staining, lipid score)",APOB^−/− organoids [2],Effective
same,endogenous fluorescent signal of PLIN2 reporter,[4],reduced the endogenous fluorescent signal
"hFGF19: recombinant human FGF19, activates β-Klotho/FGFRs","steatosis phenotype (lipid staining, lipid score)",[3],marked steatosis-reducing effects
same,expression of FXR target genes CYP7A1 and CYP27A1,APOB^−/− organoids [1],downregulation
same,expression of NR0B2 (SHP),APOB^−/− organoids [1],induction
same,"expression of de novo lipogenesis-related genes, including DGAT2, ACSS2, and GPAM",APOB^−/− organoids [1],repress
same,"expression of key hepatocyte markers (ALB, TTR)",APOB^−/− organoids [1],downregulation
same,genes of TGFβ regulation of extracellular matrix,APOB^−/− organoids [1],gene induction patterns suggestive of TGFβ-related extracellular matrix remodeling
same,"steatosis phenotype (lipid staining, lipid score)",MTTP^−/− organoids,marked steatosis-reducing effects
same,"steatosis phenotype (lipid staining, lipid score)",APOB^−/− organoids [2],marked steatosis-reducing effects
"Cc1nnc(-c2cc(C(=O)N3CCC(c4ccc(C#N)cc4)CC3)c(C)cc2C2CCC2)[nH]1 [FASi, TVB2640]","steatosis phenotype (lipid staining, lipid score)",[3],Effective
same,expression of genes important for cell proliferation and DNA synthesis,APOB^−/− organoids [1],downregulation
same,"expression of key genes involved in glycolysis (ALDOB, HK2, ENO2, PFKFB3/4)",APOB^−/− organoids [1],downregulated
same,"expression of lipogenic genes (ACACA, FASN, SREBF1, etc.)",APOB^−/− organoids [1],increased expression
same,"steatosis phenotype (lipid staining, lipid score)",MTTP^−/− organoids,Effective
same,"steatosis phenotype (lipid staining, lipid score)",APOB^−/− organoids [2],Effective

# Reference: patent publication US20250011722A1, “HEPATIC ORGANOIDS” (Koninklijke Nederlandse Akademie van Wetenschappen, priority 2021, published 2025)
